Experimental data as given in the supplement of paper PMC9663587.

Tests used:
Assay in all cases: area over the GR curve, 72 h; higher = more effect;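 also: Dye Drop or Deep Dye Drop imaging of viable cells in 384-well plates (Hoechst nuclei, LIVE/DEAD dye), nine half-log doses, GR normalized to DMSO controls and time-zero plates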
[1] = tested on: MCF7
[2] = tested on: HCC1143
[3] = tested on: SUM229PE
[4] = tested on: HTERT_HME1
[5] = tested on: PDX1258
[6] = tested on: PDX1328
[7] = tested on: HCC1569
[8] = tested on: HCC202
[9] = tested on: HCC1419
[10] = tested on: CAL851
[11] = tested on: HCC1395

SMILES	area over the GR curve [1]	area over the GR curve [2]	area over the GR curve [3]	area over the GR curve [4]	area over the GR curve [5]	area over the GR curve [6]	area over the GR curve [7]	area over the GR curve [8]	area over the GR curve [9]	area over the GR curve [10]	area over the GR curve [11]
CC(C)n1nc(-c2ccc3oc(N)nc3c2)c2c(N)ncnc21 [INK128/MLN0128] (max 3.162 µM)	0.726 GR	0.474 GR	0.379 GR	0.401 GR	0.449 GR	0.745 GR	0.508 GR	0.581 GR	0.763 GR	0.626 GR	0.557 GR
CC(C)NC[C@@H](C(=O)N1CCN(c2ncnc3c2[C@H](C)C[C@H]3O)CC1)c1ccc(Cl)cc1 [Ipatasertib/GDC0068] (max 10 µM)	0.26 GR	0.0662 GR	0.1 GR	0.0249 GR	0.15 GR	-0.0202 GR	0.227 GR	0.169 GR	0.0911 GR	0.166 GR	0.278 GR
CN(C)C(=O)c1cc2cnc(Nc3ccc(N4CCNCC4)cn3)nc2n1C1CCCC1 [LEE011/Ribociclib] (max 10 µM)	0.442 GR	0.27 GR	0.221 GR	0.365 GR	-0.124 GR	0.406 GR	-0.108 GR	0.11 GR	0.293 GR	0.0857 GR	0.323 GR
CCNC(=O)c1noc(-c2cc(C(C)C)c(O)cc2O)c1-c1ccc(CN2CCOCC2)cc1 [Luminespib/NVP-AUY922] (max 1 µM)	0.513 GR	0.693 GR	0.729 GR	0.633 GR	0.608 GR	0.751 GR	0.513 GR	0.431 GR	0.641 GR	0.75 GR	0.617 GR
CCOc1cc2ncc(C#N)c(Nc3ccc(OCc4ccccn4)c(Cl)c3)c2cc1NC(=O)/C=C/CN(C)C [Neratinib/HKI272] (max 3.162 µM)	0.142 GR	0.238 GR	0.24 GR	0.265 GR	0.154 GR	0.314 GR	0.397 GR	0.453 GR	0.993 GR	0.538 GR	0.142 GR
O=C(c1cc(Cc2n[nH]c(=O)c3ccccc23)ccc1F)N1CCN(C(=O)C2CC2)CC1 [Olaparib/AZD2281] (max 10 µM)	0.0554 GR	0.0925 GR	0.0365 GR	0.0258 GR	0.02 GR	0.0373 GR	0.053 GR	0.127 GR	0.018 GR	0.135 GR	0.253 GR
CC(=O)O[C@H]1C(=O)[C@@]2(C)[C@H]([C@H](OC(=O)c3ccccc3)[C@]3(O)C[C@H](OC(=O)[C@H](O)[C@@H](NC(=O)c4ccccc4)c4ccccc4)C(C)=C1C3(C)C)[C@]1(OC(C)=O)CO[C@@H]1C[C@@H]2O [Paclitaxel] (max 1 µM)	0.772 GR	0.839 GR	0.91 GR	0.676 GR	0.68 GR	0.866 GR	0.663 GR	0.552 GR	0.47 GR	0.793 GR	0.839 GR
CS(=O)(=O)N1CCN(Cc2cc3nc(-c4cccc5[nH]ncc45)nc(N4CCOCC4)c3s2)CC1 [Pictilisib/GDC0941] (max 10 µM)	0.506 GR	0.32 GR	0.137 GR	0.134 GR	0.23 GR	0.296 GR	0.346 GR	0.431 GR	0.512 GR	0.36 GR	0.226 GR
O=C1NC(=NCc2cccs2)SC1=Cc1ccc2ncccc2c1 [R0-3306] (max 10 µM)	0.0991 GR	0.262 GR	0.0926 GR	0.0677 GR	0.0971 GR	0.112 GR	0.022 GR	0.14 GR	-0.0238 GR	0.159 GR	0.418 GR
CNCc1ccc(-c2[nH]c3cc(F)cc4c3c2CCNC4=O)cc1 [Rucaparib] (max 10 µM)	0.0771 GR	0.0731 GR	0.047 GR	0.121 GR	0.204 GR	0.151 GR	-0.0162 GR	0.207 GR	0.0527 GR	0.203 GR	0.385 GR
CC1(N)CCN(c2cnc(-c3cccc(Cl)c3Cl)c(N)n2)CC1 [SHP099] (max 10 µM)	0.0308 GR	0.0677 GR	-0.0033 GR	0.0778 GR	-0.0325 GR	0.0593 GR	-0.114 GR	0.051 GR	0.0437 GR	0.137 GR	0.0738 GR
CN1CCN(CCOc2cc(OC3CCOCC3)c3c(Nc4c(Cl)ccc5c4OCO5)ncnc3c2)CC1 [Saracatinib/AZD0530] (max 10 µM)	0.322 GR	0.237 GR	0.131 GR	-0.0453 GR	0.275 GR	0.31 GR	0.188 GR	0.396 GR	0.264 GR	0.184 GR	0.111 GR
Cc1cc(C(C)Nc2ccccc2)c2nc(N3CCOCC3)cc(=O)n2c1 (stereo not drawn) [TGX221] (max 10 µM)	-0.0083 GR	0.0331 GR	-0.0167 GR	-0.0608 GR	-0.0475 GR	0.0318 GR	0.0644 GR	-0.0253 GR	-0.0488 GR	-0.0591 GR	0.0832 GR
CN(C)C/C=C/C(=O)Nc1ccc(C(=O)Nc2cccc(Nc3ncc(Cl)c(-c4c[nH]c5ccccc45)n3)c2)cc1 [THZ1] (max 1 µM)	0.514 GR	0.487 GR	0.504 GR	0.76 GR	0.633 GR	0.483 GR	0.363 GR	0.42 GR	0.369 GR	0.639 GR	0.609 GR
CN(C)C/C=C/C(=O)Nc1ccc(C(=O)N2CCC[C@@H](Nc3ncc(Cl)c(-c4c[nH]c5ccccc45)n3)C2)cc1 [THZ531] (max 1 µM)	0.344 GR	0.266 GR	0.132 GR	0.182 GR	0.457 GR	0.418 GR	0.312 GR	0.3 GR	0.21 GR	0.36 GR	0.37 GR
CN(C)C/C=C/C(=O)Nc1ccc(C(=O)Nc2cccc(Nc3cc(-c4c[nH]c5ccccc45)ncn3)c2)cc1 [THZ-P1-2] (max 10 µM)	0.292 GR	0.216 GR	0.149 GR	0.107 GR	0.572 GR	0.0529 GR	0.0873 GR	0.0733 GR	0.019 GR	0.217 GR	0.442 GR
Cc1nc(-c2cn3c(n2)-c2ccc(-c4cnn(C(C)(C)C(N)=O)c4)cc2OCC3)n(C(C)C)n1 [Taselisib/GDC0032] (max 10 µM)	0.768 GR	0.476 GR	0.397 GR	0.439 GR	0.278 GR	0.576 GR	0.598 GR	0.791 GR	0.852 GR	0.55 GR	0.208 GR
O=C1NC(=O)[C@@H](c2cn3c4c(cccc24)CCC3)[C@@H]1c1c[nH]c2ccccc12 [Tivantinib/ARQ197] (max 10 µM)	0.453 GR	0.498 GR	0.661 GR	0.648 GR	0.373 GR	0.528 GR	0.278 GR	0.277 GR	0.238 GR	0.518 GR	0.372 GR
Nc1ccc(-c2ccc3ncc4ccc(=O)n(-c5cccc(C(F)(F)F)c5)c4c3c2)cn1 [Torin2] (max 1 µM)	0.603 GR	0.362 GR	0.345 GR	0.339 GR	0.362 GR	0.643 GR	0.487 GR	0.473 GR	0.634 GR	0.54 GR	0.441 GR
CC[C@@H]1C(=O)N(C)c2cnc(Nc3ccc(C(=O)N[C@H]4CC[C@H](N5CCN(CC6CC6)CC5)CC4)cc3OC)nc2N1C(C)C [Volasertib/BI6727] (max 1 µM)	0.605 GR	0.729 GR	0.605 GR	0.415 GR	0.549 GR	0.842 GR	0.375 GR	0.38 GR	0.325 GR	0.717 GR	0.759 GR
O=C(CCCCCCC(=O)Nc1ccccc1)NO [Vorinostat] (max 10 µM)	0.349 GR	0.294 GR	0.153 GR	0.153 GR	0.211 GR	0.36 GR	0.163 GR	0.202 GR	0.148 GR	0.201 GR	0.099 GR
C=CC(=O)Nc1ccc(C(=O)Nc2[nH]nc3c2CN(C(=O)N[C@H](CN(C)C)c2ccccc2)C3(C)C)cc1 [YKL-5-124] (max 10 µM)	0.806 GR	0.788 GR	0.744 GR	0.889 GR	0.993 GR	0.532 GR	0.736 GR	0.706 GR	1.01 GR	1.2 GR	0.874 GR
CN1CCN(C(=O)c2ccc3cc(CCNc4ncnc5ccc(C#N)cc45)ccc3c2)CC1 [senexin b] (max 10 µM)	0.249 GR	0.22 GR	0.21 GR	0.177 GR	0.125 GR	0.0976 GR	0.158 GR	0.182 GR	0.13 GR	0.226 GR	0.264 GR
